ChEMBL document CHEMBL2057063, “Exogenous fluorescent tracer agents based on pegylated pyrazine dyes for real-time point-of-care measurement of glomerular filtration rate” (Bioorg Med Chem, 2012)

Legend:
[1] = Plasma protein binding in rat at 20 uM after 1 hr by HPLC analysis; format: ADME, cell-free; settings: read-out: PPB (converted)
[2] = Drug excretion in Sprague-Dawley rat urine administered via tail vein measured after 6 hrs by HPLC analysis; format: ADME; settings: iv, read-out: Ae
[3] = organism: Rattus norvegicus; assay: Volume of distribution in Sprague-Dawley rat; format: ADME, organism-based; settings: in vivo
[4] = Terminal elimination half life in Sprague-Dawley rat plasma; format: ADME, cell-free; settings: read-out: beta t1/2
[5] = Clearance in Sprague-Dawley rat; format: ADME, organism-based; settings: in vivo
[6] = Clearance in Sprague-Dawley rat in presence of 70 mg/kg probenecid administered 10 mins prior to compound treatment; format: ADME, organism-based; set-up: dose 70 mg/kg; settings: in vivo, with probenecid 70 mg/kg
[7] = Terminal elimination half life in Sprague-Dawley rat blood; format: ADME, tissue-based; settings: read-out: beta t1/2

| SMILES | fraction unbound at 1 h, 20 µM [1] | Vd [3] [mL] | half-life [4] [min] | clearance [5] [mL/min] | clearance [6] [mL/min] | half-life [7] [min] | dose excreted at 6 h [2] [%] |
| --- | --- | --- | --- | --- | --- | --- | --- |
| COCCOCCOCCOCCNC(=O)c1nc(N)c(C(=O)NCCOCCOCCOCCOC)nc1N | 1 |  |  |  |  |  | 41 |
| COCCOCCOCCOCCOCCOCCOCCOCCNC(=O)c1nc(N)c(C(=O)NCCOCCOCCOCCOCCOCCOCCOCCOC)nc1N | 1 |  |  |  |  |  | 45 |
| COCCOCCOCCOCCOCCOCCOCCOCCCNc1nc(C(=O)NCCOCCOCCOCCOCCOCCOCCOCCOCCOCCOCCOCCOCCOCCOCCOCCOCCOCCOCCOCCOCCOCCOCCOCCOC)c(NCCCOCCOCCOCCOCCOCCOCCOCCOC)nc1C(=O)NCCOCCOCCOCCOCCOCCOCCOCCOCCOCCOCCOCCOCCOCCOCCOCCOCCOCCOCCOCCOCCOCCOCCOCCOC | 0.7 |  |  |  |  |  | 92 |
| COCCOCCOCCOCCOCCOCCOCCOCCOCCOCCOCCOCCOCCOCCOCCOCCOCCOCCOCCOCCOCCOCCOCCOCCCNc1nc(C(=O)NCCOCCOCCOCCOCCOCCOCCOCCOCCOCCOCCOCCOCCOCCOCCOCCOCCOCCOCCOCCOCCOCCOCCOCCOC)c(NCCCOCCOCCOCCOCCOCCOCCOCCOCCOCCOCCOCCOCCOCCOCCOCCOCCOCCOCCOCCOCCOCCOCCOCCOC)nc1C(=O)NCCOCCOCCOCCOCCOCCOCCOCCOCCOCCOCCOCCOCCOCCOCCOCCOCCOCCOCCOCCOCCOCCOCCOCCOC | 0.61 |  |  |  |  |  | 86 |
| COCCOCCOCCOCCOCCOCCOCCOCCOCCOCCOCCOCCOCCOCCOCCOCCOCCOCCOCCOCCOCCOCCOCCOCCNC(=O)c1nc(N)c(C(=O)NCCOCCOCCOCCOCCOCCOCCOCCOCCOCCOCCOCCOCCOCCOCCOCCOCCOCCOCCOCCOCCOCCOCCOCCOC)nc1N | 0.95 | 64 | 25 | 2.8 | 2.7 |  | 96 |
| CNC(=O)c1c(I)c(NC(C)=O)c(I)c(C(=O)[O-])c1I.[Na+] [IOTHALAMATE SODIUM] |  | 104 |  | 2.5 | 2.2 |  | 80 |
| COCCOCCOCCOCCOCCOCCOCCOCCOCCOCCOCCOCCCNc1nc(C(=O)NCCOCCOCCOCCOCCOCCOCCOCCOCCOCCOCCOCCOCCOCCOCCOCCOCCOCCOCCOCCOCCOCCOCCOCCOC)c(NCCCOCCOCCOCCOCCOCCOCCOCCOCCOCCOCCOCCOC)nc1C(=O)NCCOCCOCCOCCOCCOCCOCCOCCOCCOCCOCCOCCOCCOCCOCCOCCOCCOCCOCCOCCOCCOCCOCCOCCOC | 0.59 | 68 | 31 |  |  |  | 89 |
| O=C(NCC(O)CO)c1nc(NC[C@H](O)CO)c(C(=O)NCC(O)CO)nc1NC[C@H](O)CO (some centres undefined) |  |  |  |  |  |  | 88 |
| Nc1nc(C(=O)N[C@H](CO)C(=O)O)c(N)nc1C(=O)N[C@H](CO)C(=O)O [RELMAPIRAZIN] |  | 83 |  |  |  |  | 90 |
| COCCOCCOCCNc1nc(C(=O)NCCOCCOCCOCCOCCOCCOCCOCCOCCOCCOCCOCCOCCOCCOCCOCCOCCOCCOCCOCCOCCOCCOCCOCCOC)c(NCCOCCOCCOC)nc1C(=O)NCCOCCOCCOCCOCCOCCOCCOCCOCCOCCOCCOCCOCCOCCOCCOCCOCCOCCOCCOCCOCCOCCOCCOCCOC | 0.89 |  |  |  |  |  | 96 |

More lines, main results first:

| fraction unbound at 1 h, 20 µM [1] | Vd [3] [mL] | half-life [4] [min] | clearance [5] [mL/min] | clearance [6] [mL/min] | half-life [7] [min] | SMILES | dose excreted at 6 h [2] [%] |
| --- | --- | --- | --- | --- | --- | --- | --- |
| 1 |  |  |  |  |  | COCCOCCOCCOCCCNc1nc(C(=O)NCCOCCOCCOCCOCCOCCOCCOCCOCCOCCOCCOCCOC)c(NCCCOCCOCCOCCOC)nc1C(=O)NCCOCCOCCOCCOCCOCCOCCOCCOCCOCCOCCOCCOC | 86 |
| 0.99 |  |  |  |  |  | COCCOCCOCCOCCOCCOCCOCCOCCCNc1nc(C(=O)NCCOCCOCCOCCOCCOCCOCCOCCOCCOCCOCCOCCOC)c(NCCCOCCOCCOCCOCCOCCOCCOCCOC)nc1C(=O)NCCOCCOCCOCCOCCOCCOCCOCCOCCOCCOCCOCCOC | 87 |
| 0.87 |  |  |  |  |  | CCCNc1nc(C(=O)NCCOCCOCCOCCOCCOCCOCCOCCOCCOCCOCCOCCOCCOCCOCCOCCOCCOCCOCCOCCOCCOCCOCCOCCOC)c(NCCC)nc1C(=O)NCCOCCOCCOCCOCCOCCOCCOCCOCCOCCOCCOCCOCCOCCOCCOCCOCCOCCOCCOCCOCCOCCOCCOCCOC | 85 |
| 0.97 | 61 | 19 | 3.1 | 3.3 | 21.6 | COCCOCCOCCOCCOCCOCCOCCOCCOCCOCCOCCOCCCNc1nc(C(=O)NCCOCCOCCOCCOCCOCCOCCOCCOCCOCCOCCOCCOC)c(NCCCOCCOCCOCCOCCOCCOCCOCCOCCOCCOCCOCCOC)nc1C(=O)NCCOCCOCCOCCOCCOCCOCCOCCOCCOCCOCCOCCOC | 97 |
| 1 | 70 | 20 |  |  |  | COCCOCCOCCOCCOCCOCCOCCOCCOCCOCCOCCOCCNC(=O)c1nc(N)c(C(=O)NCCOCCOCCOCCOCCOCCOCCOCCOCCOCCOCCOCCOC)nc1N | 71 |
